The subject of series [1] is HGF/MET system. The experiment in a line: Phospho-MET ELISA. Type of series: cell-based. Also noted: key: − indicates that the compound failed to significantly augment MET phosphorylation; + indicates maximum potency at or above 100 nM; ++ indicates maximum potency at or above 10 nM; +++ indicates maximum potency at or above 1 nM; ++++ indicates maximum potency at or above 0.1 nM. To be noted: HEK293 cells; with 1 ng/mL recombinant HGF; 15 minutes; augmentation of MET phosphorylation (pMET ELISA). The method, then: Compounds were screened for potency towards the HGF/MET system using phospho-MET (pMET) ELISA kits (Cell Signaling). pMET levels were detected in samples having low (1 ng/mL) and high (10 ng/mL) concentrations of HGF.
HEK293 cells were prepared by passage into 6-well multi-plates and grown at 37° C. at 5% CO2 in DMEM+10% FBS until approximately 90% confluent. Cells were then starved for at least 8 hours in serum-free growth media.
Exemplary compounds were prepared in DMEM+0.1% FBS, diluted and added to treatment media with 1 ng/mL recombinant HGF protein (R&D Systems). Cells were incubated in triplicate at 37° C. and 5% CO2 for 15 minutes. Samples were then treated with 180 μL ice-cold RIPA (radioimmunoprecipitation assay) buffer and cells were lysed on ice for 15 minutes. Lysates were cleared by centrifugation at 16,000-g for 15 minutes and the supernatant was retained. Samples were normalized using a BCA assay of lysates to determine protein concentrations across the samples.
Between 50 and 100 μg total protein lysate was loaded into ELISA wells in pMET Sandwich ELISA kit (Cell Signaling Catalog #7227C), ensuring equal protein load in each well. The ELISA was processed according to manufacturer's instructions. After color developed, absorbance was read on an optical plate reader at 450 nm.
Potency measurements were determined using peak efficacy by scaling test compound dose treatments along a scale of 1-10 between 1 ng/mL and 10 ng/mL HGF doses according to the following formula: […]
where y is the normalized data-point, x is the raw data point, A is the mean HGF at 1 ng/mL, and B is the mean HGF at 10 ng/mL.

Series [2] is described as follows: Parallel artificial membrane permeability assay (PAMPA). Format: in vitro ADME. To be noted: PBS, room temperature for 5 hours, 200 uM in donor well. The method, then:
Bioavailable drugs must permeate the cellular membranes of the lining of the digestive tract. To estimate the penetrability of exemplary compounds, the in vitro parallel artificial membrane permeability assay (PAMPA) was utilized.
Test compounds must have a standard curve in the final read plate to determine partitioned concentration of each drug. A 6-point standard curve was prepared for each compound from 0 to 200 μM in phosphate-buffered saline (PBS).
Test compound solution (300 μL in PBS) was added to the donor (bottom) well of the PAMPA plate in 5 replicates and PBS vehicle (200 μL) was added to the acceptor (top) wells of appropriate wells to match the loading of the donor plate. The bottom and top of the PAMPA plates were then sandwiched together. The PAMPA plates were then incubated at room temperature for 5 hours. After incubation, 150 μL of donor solution was added to a UV compatible plate containing the corresponding standard curve. 150 μL of acceptor well solution was added adjacent to the corresponding standard curve and donor well samples for that compound. The plate was then read using a UV plate reader.
Permeability and membrane retention were then calculated based on the following formulas:
where: • A=filter area (0.3 cm^2); • VD=donor well volume (0.3 mL); • VA=acceptor well volume (0.2 mL); • t=incubation time (seconds); • CA(t)=compound concentration in acceptor well at time t; • CD(t)=compound concentration in donor well at time t; and
where: • CD(t), VD, CA(t), and VA are as defined for equation 1, and • C0=initial concentration in donor well (200 uM).

For series [3], the system named is hepatocyte (HepG2) cell cultures. The series is described as follows: Cytotoxicity assay (LDH release). Type of series: cell-based. To be noted: HepG2 cells, 48 hours, 0.1 to 100 μM. How it is done:
This experiment was designed to obtain a preliminary assessment of cytotoxicity.
HepG2 cells were plated in 96-well cell culture plates and allowed to attach overnight at 37° C., 5% CO2 in EMEM+10% FBS. Treatments were made in complete media (EMEM+10% FBS) and included a dilution series of test compounds from 0.1 to 100 μM. Known cytotoxin cerivastatin was used as a positive assay control and prepared at a final concentration of 0.5 μM.
Growth media was replaced with treatment media (EMEM+10% FBS containing test compound dissolved in DMSO) and cells were incubated with test compounds for 48 hours. At the end of the incubation period, supernatant media from each well was transferred to a new plate and LDH assay working solution was added. LDH assay solution undergoes a colorimetric reaction in proportion to the amount of lactate dehydrogenase (an intracellular protein that was only found in the media in the presence of lysed cells) in the media. Color reaction was quantified by measurement of absorbance at a wavelength of 490 nm.
The signal range of the assay was determined by no manipulation in a negative control treatment and full lysis of all cells in a lysis control sample. Compounds that increase the level of cytotoxicity more than 20% above negative control samples were considered cytotoxic in this assay.
A general note: LDH leaks from cells whose membrane has failed.

Series [4] can be described thus: In vitro stability in simulated gastric and intestinal fluids. Format: in vitro ADME. The conditions noted are these: 37° C. How it is done:
(§1) Bioavailability can be estimated by compound stability when exposed to conditions in the body. As an initial assessment of stability properties in a variety of conditions present in animals, exemplary compounds were tested for stability in a battery of simulated body compartments. Compounds were tested for stability in the following solutions: simulated gastric fluid (SGF: 34.2 mM NaCl, pH 1.2), simulated gastric fluid with the digestive enzyme pepsin (SGF+Enzyme: SGF with 3.2 mg/ml pepsin), simulated intestinal fluid with the mixture of enzymes in porcine pancreatin (SIF+Enzyme: 28.7 mM NaH2PO4, 105.7 mM NaCl, pH 6.8, 10 mg/ml pancreatin), rat plasma, and human plasma.
(§2) Test compounds were incubated at a final concentration of 5 μM in the above solutions at 37° C. with samples removed at the following time points: 0, 1, 2, and 4 hours. Reactions were stopped and prepared for quantification by addition of excess quench solution containing an internal standard (acetonitrile, 200 ng/mL bucetin). Test compound and internal standard in each sample was quantified by LC-MS/MS, and after internal normalization to bucetin, test compound concentration was expressed as a percentage of concentration at the 0-hour time point. Stability in the relevant test solution was then determined by the percent remaining at the 4-hour time point.

A short description of series [5]: In vitro stability in rat plasma. Type of series: in vitro ADME. To be noted: 5 μM, 37° C. How it is done: as §1, §2
The nature of series [6]: In vitro stability in human plasma. Format: in vitro ADME. To be noted: 5 μM, 37° C. How it is done: as §1, §2
The nature of series [7]: In vivo tissue distribution. Also noted: species or system Sprague-dawley rats. The conditions noted are these: rat, 10 minutes post administration. The method, then: The rate of distribution to target tissues is an important feature of therapeutic molecules. Tissue distribution of exemplary compounds was performed in mixed-sex Sprague-dawley rats. Test compounds were delivered via tail vein injection (IV) and tissues were collected at Tmax (10 minutes post administration). Animals were deeply anesthetized with isoflurane and whole blood was collected from the right atrium and processed by centrifugation to produce plasma. Animals were then fully perfused with PBS administered to the left ventricle to prevent blood contamination of tissues.
Tissues were collected and homogenized, and compound content in the target tissue was quantified by LC-MS/MS. Tissue distribution rates were determined by dividing the tissue concentration of compound by the plasma concentration and multiplying by 100.

Series [8] deals with MDCK cells. The series is described as follows: Cell scattering behavior assay. Format: cell-based. Also on record: key: − indicates that the compound failed to significantly promote cell scattering behavior; + indicates maximum potency at or above 100 nM; ++ indicates maximum potency at or above 10 nM; +++ indicates maximum potency at or above 1 nM; ++++ indicates maximum potency at or above 0.1 nM. To be noted: with 5 ng/mL HGF, 24 hours, normalized particle count compared to HGF treatment alone. The method, then:
MDCK cells were grown under normal conditions and observed to spontaneously form tight colonies as they proliferate. MDCK cells respond to HGF treatment by moving away from each other (scattering), which is quantified to assess the amount of HGF/MET activation in the cell population. In this experiment, MDCK cells were plated in a 96-well format, treated with HGF and exemplary compounds, fluorescently stained, imaged in large fields, and scattering behavior was quantified. Quantification was determined by analyzing the number of continuous groups of cells compared to the total stained area imaged (normalized particle counts).
MDCK cells were plated at low density in black-walled imaging plates and allowed to attach overnight at 37° C. and 5% CO2 in DMEM+10% FBS. Cells were then starved to 2 hours in DMEM without FBS (“starve media”). Samples containing exemplary compounds were prepared in DMEM without FBS and included 5 ng/mL HGF protein (“treatment media”). A control curve was also prepared for each plate using HGF concentrations of 0, 5, 10, and 20 ng/mL. Starve media was replaced with treatment media and cells were incubated for 24 hours at 37° C. and 5% CO2.
After incubation, cells were fixed by replacing treatment media with cold ethanol and incubating for 20 minutes at 4° C. Cells were then rehydrated by washing with PBS and then with stain solution (fluorescent wheat germ agglutinin; WGA488 at 20 μg/mL in PBS). Cells were incubated with stain solution 30 minutes at room temperature after which stain solution was replaced with fresh PBS.
Fields of cells were imaged using an iCyte high content imager in the green wavelength. Images were converted to binary and analyzed for particle size and particle count. For the purpose of analysis, an individual cell touching no other cells or separated colonies of cells were identified as particles, and particle counts were normalized by the total signal area to account for differences in cell number. […] Compound potency was assessed by statistical increase in normalized particle count compared to HGF treatment alone.

Molecules are shown by their SMILES. A value given as a limit tells only on which side of the number the result lay.

For orientation: Papp means the rate of passage across a membrane or cell layer, normalised by area and donor concentration.

For the compound `CC1C(=O)N(CC2CCC2)CC2N(C(=O)c3ccc(OC(F)F)cc3)CCC(=O)N12` (centres unmarked) [Compound 14], the Potency result in series [1] is “++++ (++++ indicates maximum potency at or above 0.1 nM)”. In addition, in series [2], the Papp at 5 h, 200 uM is greater than 2 ×10⁻⁶ cm/s. In addition, in series [3], the Cytotoxicity entry was “++++ (++++ indicates non-toxic at 100 μM)”. Further, the “SGF, compound remaining after 4 hours” value in series [4] (simulated gastric fluid pH 1.2, 5 μM) is on record as “++ (++ indicates 40-79% compound remaining after 4 hours)”. In addition, in series [4] (simulated gastric fluid with 3.2 mg/ml pepsin, 5 μM), the “SGF + Enz, compound remaining after 4 hours” value is reported as “++ (++ indicates 40-79% compound remaining after 4 hours)”. Moreover, the “SIF, compound remaining after 4 hours” value in series [4] (simulated intestinal fluid pH 6.8 with 10 mg/ml pancreatin, 5 μM) is “+++ (+++ indicates 80-99% compound remaining after 4 hours)”. Besides, the “Rat Plasma, compound remaining after 4 hours” value in series [5] is “+++ (+++ indicates 80-99% compound remaining after 4 hours)”. In series [6], the “Human Plasma, compound remaining after 4 hours” value was “+++ (+++ indicates 80-99% compound remaining after 4 hours)”. Besides, the “Tissue Distribution (% Plasma exposure at 10 min post IV dose) Brain” value in series [7] (brain) was “++ (++ indicates distribution between 5 and 39%)”. Further, the “Tissue Distribution (% Plasma exposure at 10 min post IV dose) Cerebellum” value in series [7] (cerebellum) was “++ (++ indicates distribution between 5 and 39%)”. Also, in series [7] (cortex), the “Tissue Distribution (% Plasma exposure at 10 min post IV dose) Cortex” value is “++ (++ indicates distribution between 5 and 39%)”. Moreover, the “Tissue Distribution (% Plasma exposure at 10 min post IV dose) Hippocampus” value in series [7] (hippocampus) was “++ (++ indicates distribution between 5 and 39%)”. Also, in series [7] (sciatic nerve), the “Tissue Distribution (% Plasma exposure at 10 min post IV dose) Sciatic Nerve” value is “++ (++ indicates distribution between 5 and 39%)”.

Regarding `CCC(C)CN1CC2N(Cc3ccc(OC(F)F)cc3)CCC(=O)N2C(CC(=O)O)C1=O` (centres unmarked) [Compound 49, 2-(1-(4-(difluoromethoxy)benzyl)-8-(2-methylbutyl)-4,7-dioxooctahydro-2H-pyrazino[1,2-a]pyrimidin-6-yl)acetic acid], the Potency entry in series [1] and in series [8] was “++++ (++++ indicates maximum potency at or above 0.1 nM)” each time. Moreover, in series [2], the Papp at 5 h, 200 uM is greater than 2 ×10⁻⁶ cm/s. For the same compound, the Cytotoxicity entry in series [3] is “++++ (++++ indicates non-toxic at 100 μM)”.

Regarding `CC1C(=O)N(CCC2CCC2)CC2N(Cc3ccc(C(F)(F)F)c(Cl)c3)CCC(=O)N12` (centres unmarked) [Compound 51], the Potency entry in series [1] and in series [8] was “+++ (+++ indicates maximum potency at or above 1 nM)” throughout. For the same compound, the Papp at 5 h, 200 uM in series [2] was less than 2 ×10⁻⁶ cm/s. Also, in series [3], the Cytotoxicity result is “+++ (+++ indicates non-toxic at 10 μM)”.

On to `CCC(C)CN1CC2N(Cc3ccc(OC(F)F)cc3)CCC(=O)N2C(CC(C)C)C1=O` (centres unmarked) [Compound 53, 1-(4-(difluoromethoxy)benzyl)-6-isobutyl-8-(2-methylbutyl)hexahydro-4H-pyrazino[1,2-a]pyrimidine-4,7(6H)-dione], for which the results for the Potency result in series [1] and in series [8] were “++ (++ indicates maximum potency at or above 10 nM)” and “+++ (+++ indicates maximum potency at or above 1 nM)”, respectively. In series [2], this compound had a Papp at 5 h, 200 uM of less than 2 ×10⁻⁶ cm/s. The Cytotoxicity entry in series [3] is “+++ (+++ indicates non-toxic at 10 μM)”.

In the case of `CC1C(=O)N(CCC2CCCC2)CC2N(Cc3ccc(C(F)(F)F)c(Cl)c3)CCC(=O)N12` (centres unmarked) [Compound 54], the Potency entry in series [1] and in series [8] was “−” throughout. Also, the apparent permeability (Papp) at 5 h, 200 uM in series [2] was less than 2 ×10⁻⁶ cm/s. Further, in series [3], the Cytotoxicity entry was “+++ (+++ indicates non-toxic at 10 μM)”.

Source of the values: patent US20250041307A1, “Uses of Bicyclic Compounds for the Treatment of Diseases” (Athira Pharma, Inc., priority 2021, published 2025).
